# Results published in US7091024B2, “Enzyme PDE XVI” (Pfizer Inc., priority 1999, dated 2006).
# “And” between values parts separate entries of the source, which are not always exact repeats. Equal values may be shown once.
# Assays:
# [1] = target: T1, PDE_XIV (Homo sapiens, UniProt Q9NP56); assay: Phosphodiesterase inhibition studies on purified expressed PDE_XIV (cAMP SPA); type: biochemical; conditions: for IC50: N = 2, read-out: IC50 FOR PDEXIV (μM) (N = 2)
# T1 construct: made in house; host or cells: Sf9 insect cells (baculovirus, pFASTBAC-FLAG)
# T1 sequence (Q9NP56 whole entry): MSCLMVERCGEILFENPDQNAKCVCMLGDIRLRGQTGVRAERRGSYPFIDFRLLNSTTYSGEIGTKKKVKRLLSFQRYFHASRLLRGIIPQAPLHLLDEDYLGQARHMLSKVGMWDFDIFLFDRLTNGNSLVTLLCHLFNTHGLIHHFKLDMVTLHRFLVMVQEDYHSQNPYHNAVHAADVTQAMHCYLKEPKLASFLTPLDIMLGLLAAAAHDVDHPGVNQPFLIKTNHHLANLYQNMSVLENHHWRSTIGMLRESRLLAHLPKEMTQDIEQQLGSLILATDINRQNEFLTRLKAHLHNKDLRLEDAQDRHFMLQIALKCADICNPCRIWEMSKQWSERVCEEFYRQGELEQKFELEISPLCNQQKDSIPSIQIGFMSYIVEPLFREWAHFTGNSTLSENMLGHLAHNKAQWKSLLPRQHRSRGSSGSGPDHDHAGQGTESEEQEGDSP
# Procedure: This allows the specific retention on the column of the recombinant material (since this is fused to the FLAG epitope) whilst the endogenous insect proteins are washed off in the eluate. The recombinant material is then washed off under conditions of low pH. […] The purity of the material is assessed by coomassie staining after sodium dodecyl sulphate-polyacrylamide gel electrophoresis (SDS-PAGE) or through western blotting onto a nitro-cellulose membrane of an unstained SDS-PAGE (containing recombinant PDE) and analysis with the IgG1 monoclonal anti-FLAG epitope antibody. The PDE-FLAG fusion protein is detected due to the interaction between the anti-FLAG antibody and the FLAG epitope which is fused to the PDE protein. The phosphodiesterase activity of the purified PDE-FLAG fusion protein was assayed using a commercially available SPA (scintillation proximity assay) kit (Amersham-Amersham place, Little Chalfont, Bucks, HP7 9NA UK) for either cAMP and/or cGMP hydrolytic activity.
# [2] = target: T1, PDE_XIV; assay: cAMP Scintillation Proximity Assays on purified expressed PDE_XIV (substrate hydrolysis); type: biochemical
Compound,sensitivity of PDE_XIV to the PDE inhibitor [1],IC50 [1],activity of PDE_XIV against the cyclic nucleotide [2]
COc1ccc(C2CNC(=O)C2)cc1OC1CCCC1 (stereo not drawn) [Rolipram],not to be sensitive,> 30 µM,–
CC(C)Cn1c(=O)n(C)c(=O)c2[nH]cnc21 [IBMX],–,9.32 µM and 9.72 µM,–
Cc1[nH]c(=O)c(C#N)cc1-c1ccncc1 [Milrinone],not to be sensitive,> 30 µM,–
Nc1nc2c(ncn2[C@@H]2O[C@@H]3COP(=O)(O)O[C@H]3[C@H]2O)c(=O)[nH]1 [cGMP],–,–,no activity
COc1ccc([C@]2(C#N)CC[C@@H](C(=O)O)CC2)cc1OC1CCCC1 [Ariflo],not to be sensitive,> 30 µM,–
OCCN(CCO)c1nc(N2CCCCC2)c2nc(N(CCO)CCO)nc(N3CCCCC3)c2n1 [Dipyridamole],–,10.7 µM,–
